Source: patent US10323078B2, “Isolated peptides and fragments thereof from fibrinogen for use as drugs, particularly in skin inflammatory diseases” (Universite Paris Descartes, priority 2015, dated 2019)

Tested on: P. acnes surface proteins
Assay: Binding of biotinylated ECM ligands to immobilized P. acnes surface proteins
Design: species or system Propionibacterium acnes
Protocol: FIG. 2: Binding of P. acnes surface protein to purified human fibrinogen. (A) P. acnes surface proteins (0.8 to 50 μg/ml) were immobilized onto a 96-well polystyrene plate and probed with biotinylated fibrinogen (0.1 μg/ml) for 2 h at room temperature. (B) P. acnes surface proteins (25 μg/ml) were immobilized onto a 96-well polystyrene plate and probed with various concentrations of biotinylated fibrinogen ranging from 0.1 to 16 μg/ml for 2 h at room temperature. Bound biotinylated fibrinogen were detected with HRP-streptavidine as described in Materials and Methods.
To characterize the interaction between P. acnes and ligands, we used biotinylated molecules in quantitative and qualitative assays. In a first set of assays, ECM ligands (fibrinogen, collagens I, IV, VI and VIII) were used as labelled proteins with biotin. In a second set of assays, P. acnes surface proteins (total extract and purified Pfg) were biotinylated. For quantitative analysis, unlabeled protein were diluted into 50 mM carbonate-bicarbonate, pH 9.6 buffer to yield a protein concentration ranging from 0.01 to 50 μg/ml, and then immobilized to 96-well polystyrene plates at 4° C. overnight. […] After washing, bound peroxidase was detected using the chromogenic peroxidase substrate ABTS. […] Binding activity was detected by incubating the membranes with 20 ml of PBT containing biotinylated proteins (0.1 μg/ml) for 2 h at room temperature followed by three washes with PBT. Bound biotinylated proteins were detected by incubating the membrane with peroxidase conjugated to streptavidin (0.5 μg/ml in PBT) for 1 h at room temperature. After washing, bound peroxidase activity was detected using 3,3′-diaminobenzidine in the presence of CoCl2 and H2O2 (Harlow and Lane, 1988).
In order to identify P. acnes surface protein recognized by ECM ligands, we used the most commons ECM proteins recognize by skin related bacteria like collagens and fibrinogen. […] To identify surface proteins, P. acnes total heat protein extracts were electrophoretically separated and detected by silver staining (FIG. 1B). […]

Substance: human fibrinogen: purified commercial human fibrinogen (Sigma), glycoprotein hexamer of Aα, Bß and γ chains
- Binding activity of biotinylated ligand to immobilized P. acnes total surface protein (25 μg/ml of protein immobilized per well, various quantity of biotinylated Fg and Collagen I): strong binding activity
- P. acnes protein extract concentration at which the binding activity for fibrinogen reaches a plateau (several concentrations of protein extract immobilized, biotinylated fibrinogen 0.1 μg/ml): about 6.25 μg/ml
